Earlier results on 1 compound are cited in patent US20160120870A1, “THE PROCESS FOR THE PREPARATION OF A PHARMACEUTICAL COMPOSITION COMPRISING RIVAROXABAN” (SANDOZ AG, priority 2013, published 2016).

The conditions of this data set: background prior art, drug substance.

As to `O=C(NC[C@H]1CN(c2ccc(N3CCOCC3=O)cc2)C(=O)O1)c1ccc(Cl)s1` [Rivaroxaban, (S)-5-chloro-N-{[2-oxo-3-[4-(3-oxomorpholin-4-yl)phenyl]oxazolidin-5-yl]methyl}thiophene-2-carboxamide], the water solubility result is given as “relatively poor”.
